From BindingDB's records for doi:10.1021/jm950372w (Rotta Research Laboratorium, 1996)

How the values were obtained:
[1] = molecular target: Gastrin/cholecystokinin type B receptor (Cavia porcellus); experiment: Inhibition of binding of [3H]N-Me-N-Leu-CCK-8 to cholecystokinin type B receptor in guinea pig brain cortex
[2] = molecular target: Gastrin/cholecystokinin type B receptor (Oryctolagus cuniculus); experiment: In vitro inhibition of gastrin-induced [Ca2+] cytosolic elevation in isolated rabbit parietal cells

Structure (SMILES)	IC50 [1] [nM]	IC50 [2] [nM]
O=C(CCC(NC(=O)c1cc(Cl)cc(Cl)c1)C(=O)N1CCC2(CCCC2)CC1)NC(Cc1c[nH]c2ccccc12)C(=O)O (stereo not given) [2-[5-(8-Aza-spiro[4.5]dec-8-yl)-4-(3,5-dichloro-benzoylamino)-5-oxo-pentanoylamino]-3-(1H-indol-3-yl)-propionic acid]	49	12
O=C(CCC(NC(=O)c1cc(Cl)cc(Cl)c1)C(=O)N1CCC2(CCCC2)CC1)NC(Cc1ccc(O)cc1)C(=O)O (stereo not given) [2-[5-(8-Aza-spiro[4.5]dec-8-yl)-4-(3,5-dichloro-benzoylamino)-5-oxo-pentanoylamino]-3-(4-hydroxy-phenyl)-propionic acid]	320	173
O=C(CC(NC(=O)CCC(NC(=O)c1cc(Cl)cc(Cl)c1)C(=O)N1CCC2(CCCC2)CC1)C(=O)O)NCc1ccccc1 (stereo not given) [2-[5-(8-Aza-spiro[4.5]dec-8-yl)-4-(3,5-dichloro-benzoylamino)-5-oxo-pentanoylamino]-N-benzyl-succinamic acid]	385	76
O=C(CCC(NC(=O)c1cc(Cl)cc(Cl)c1)C(=O)N1CCC2(CCCC2)CC1)Nc1ccccc1C(=O)O (stereo not given) [2-[5-(8-Aza-spiro[4.5]dec-8-yl)-4-(3,5-dichloro-benzoylamino)-5-oxo-pentanoylamino]-benzoic acid]	443	55
CCCCC(NC(=O)CCC(NC(=O)c1cc(Cl)cc(Cl)c1)C(=O)N1CCC2(CCCC2)CC1)C(=O)O (stereo not given) [2-[5-(8-Aza-spiro[4.5]dec-8-yl)-4-(3,5-dichloro-benzoylamino)-5-oxo-pentanoylamino]-hexanoic acid]	1060	95
CC(NC(=O)CCC(NC(=O)c1cc(Cl)cc(Cl)c1)C(=O)N1CCC2(CCCC2)CC1)C(=O)O (stereo not given) [2-[5-(8-Aza-spiro[4.5]dec-8-yl)-4-(3,5-dichloro-benzoylamino)-5-oxo-pentanoylamino]-propionic acid]	1250	994
O=C(O)CCC(Cc1ccccc1)NC(=O)CCC(NC(=O)c1cc(Cl)cc(Cl)c1)C(=O)N1CCC2(CCCC2)CC1 (stereo not given) [4-[5-(8-Aza-spiro[4.5]dec-8-yl)-4-(3,5-dichloro-benzoylamino)-5-oxo-pentanoylamino]-5-phenyl-pentanoic acid]	157	86
O=C(CCC(NC(=O)c1cc(Cl)cc(Cl)c1)C(=O)N1CCC2(CCCC2)CC1)Nc1ccc(C(=O)O)cc1 (stereo not given) [4-[5-(8-Aza-spiro[4.5]dec-8-yl)-4-(3,5-dichloro-benzoylamino)-5-oxo-pentanoylamino]-benzoic acid]	1760	568
CN(C(=O)CCC(NC(=O)c1cc(Cl)cc(Cl)c1)C(=O)N1CCC2(CCCC2)CC1)c1ccc(C(=O)O)cc1 (stereo not given) [4-{[5-(8-Aza-spiro[4.5]dec-8-yl)-4-(3,5-dichloro-benzoylamino)-5-oxo-pentanoyl]-methyl-amino}-benzoic acid]	1420	1080
O=C(CCC(NC(=O)c1cc(Cl)cc(Cl)c1)C(=O)N1CCC2(CCCC2)CC1)N[C@H](Cc1c[nH]c2ccccc12)C(=O)O (stereo partly drawn) [(R)-2-[5-(8-Aza-spiro[4.5]dec-8-yl)-4-(3,5-dichloro-benzoylamino)-5-oxo-pentanoylamino]-3-(1H-indol-3-yl)-propionic acid]	40	9
O=C(CCC(NC(=O)c1cc(Cl)cc(Cl)c1)C(=O)N1CCC2(CCCC2)CC1)N[C@H](CC1CCCCC1)C(=O)O (stereo partly drawn) [(R)-2-[5-(8-Aza-spiro[4.5]dec-8-yl)-4-(3,5-dichloro-benzoylamino)-5-oxo-pentanoylamino]-3-cyclohexyl-propionic acid]	612	142
O=C(CCC(NC(=O)c1cc(Cl)cc(Cl)c1)C(=O)N1CCC2(CCCC2)CC1)N[C@H](Cc1cccc2ccccc12)C(=O)O (stereo partly drawn) [(R)-2-[5-(8-Aza-spiro[4.5]dec-8-yl)-4-(3,5-dichloro-benzoylamino)-5-oxo-pentanoylamino]-3-naphthalen-1-yl-propionic acid]	67	9
O=C(CCC(NC(=O)c1cc(Cl)cc(Cl)c1)C(=O)N1CCC2(CCCC2)CC1)N[C@H](Cc1ccc2ccccc2c1)C(=O)O (stereo partly drawn) [(R)-2-[5-(8-Aza-spiro[4.5]dec-8-yl)-4-(3,5-dichloro-benzoylamino)-5-oxo-pentanoylamino]-3-naphthalen-2-yl-propionic acid]	129	24
O=C(CCC(NC(=O)c1cc(Cl)cc(Cl)c1)C(=O)N1CCC2(CCCC2)CC1)N[C@H](Cc1ccccn1)C(=O)O (stereo partly drawn) [(R)-2-[5-(8-Aza-spiro[4.5]dec-8-yl)-4-(3,5-dichloro-benzoylamino)-5-oxo-pentanoylamino]-3-pyridin-2-yl-propionic acid]	155	307
O=C(O)C[C@@H](NC(=O)CCC(NC(=O)c1cc(Cl)cc(Cl)c1)C(=O)N1CCC2(CCCC2)CC1)C(=O)N1CCC2(CCCC2)CC1 (stereo partly drawn) [(R)-4-(8-Aza-spiro[4.5]dec-8-yl)-3-[5-(8-aza-spiro[4.5]dec-8-yl)-4-(3,5-dichloro-benzoylamino)-5-oxo-pentanoylamino]-4-oxo-butyric acid]	1350	200
O=C(O)CC[C@@H](NC(=O)CCC(NC(=O)c1cc(Cl)cc(Cl)c1)C(=O)N1CCC2(CCCC2)CC1)C(=O)NCCCc1ccccc1 (stereo partly drawn) [(R)-4-[5-(8-Aza-spiro[4.5]dec-8-yl)-4-(3,5-dichloro-benzoylamino)-5-oxo-pentanoylamino]-4-(3-phenyl-propylcarbamoyl)-butyric acid]	1860	117
O=C(O)CC[C@@H](NC(=O)CCC(NC(=O)c1cc(Cl)cc(Cl)c1)C(=O)N1CCC2(CCCC2)CC1)C(=O)Nc1cccc2ccccc12 (stereo partly drawn) [(R)-4-[5-(8-Aza-spiro[4.5]dec-8-yl)-4-(3,5-dichloro-benzoylamino)-5-oxo-pentanoylamino]-4-(naphthalen-1-ylcarbamoyl)-butyric acid]	85	17

More lines, now with the values ahead:

IC50 [1] [nM]	IC50 [2] [nM]	Structure (SMILES)
427	38	O=C(O)CC[C@@H](NC(=O)CCC(NC(=O)c1cc(Cl)cc(Cl)c1)C(=O)N1CCC2(CCCC2)CC1)C(=O)NCc1ccccc1 (stereo partly drawn) [(R)-4-[5-(8-Aza-spiro[4.5]dec-8-yl)-4-(3,5-dichloro-benzoylamino)-5-oxo-pentanoylamino]-4-benzylcarbamoyl-butyric acid]
1110	398	O=C(O)CC[C@@H](NC(=O)CCC(NC(=O)c1cc(Cl)cc(Cl)c1)C(=O)N1CCC2(CCCC2)CC1)C(=O)NCCc1ccccc1 (stereo partly drawn) [(R)-4-[5-(8-Aza-spiro[4.5]dec-8-yl)-4-(3,5-dichloro-benzoylamino)-5-oxo-pentanoylamino]-4-phenethylcarbamoyl-butyric acid]
	1220	O=C(O)CC[C@@H](NC(=O)c1cc(Cl)cc(Cl)c1)C(=O)N1CCC2(CCCC2)CC1 [(R)-5-(8-Aza-spiro[4.5]dec-8-yl)-4-(3,5-dichloro-benzoylamino)-5-oxo-pentanoic acid]
1690	206	O=C(O)CC[C@@H](NC(=O)CCC(NC(=O)c1cc(Cl)cc(Cl)c1)C(=O)N1CCC2(CCCC2)CC1)C(=O)N1CCC2(CCCC2)CC1 (stereo partly drawn) [(R)-5-(8-Aza-spiro[4.5]dec-8-yl)-4-[5-(8-aza-spiro[4.5]dec-8-yl)-4-(3,5-dichloro-benzoylamino)-5-oxo-pentanoylamino]-5-oxo-pentanoic acid]
216	35	O=C(CCC(NC(=O)c1cc(Cl)cc(Cl)c1)C(=O)N1CCC2(CCCC2)CC1)N[C@@H](Cc1c[nH]c2ccccc12)C(=O)O (stereo partly drawn) [(S)-2-[5-(8-Aza-spiro[4.5]dec-8-yl)-4-(3,5-dichloro-benzoylamino)-5-oxo-pentanoylamino]-3-(1H-indol-3-yl)-propionic acid]
78	55	CN(Cc1ccccc1)C(=O)CC[C@H](NC(=O)CCC(NC(=O)c1cc(Cl)cc(Cl)c1)C(=O)N1CCC2(CCCC2)CC1)C(=O)O (stereo partly drawn) [(S)-2-[5-(8-Aza-spiro[4.5]dec-8-yl)-4-(3,5-dichloro-benzoylamino)-5-oxo-pentanoylamino]-4-(benzyl-methyl-carbamoyl)-butyric acid]
44	12	O=C(CC[C@H](NC(=O)CCC(NC(=O)c1cc(Cl)cc(Cl)c1)C(=O)N1CCC2(CCCC2)CC1)C(=O)O)Nc1cccc2ccccc12 (stereo partly drawn) [(S)-2-[5-(8-Aza-spiro[4.5]dec-8-yl)-4-(3,5-dichloro-benzoylamino)-5-oxo-pentanoylamino]-4-(naphthalen-1-ylcarbamoyl)-butyric acid]
158	44	CN(Cc1ccccc1)C(=O)C[C@H](NC(=O)CCC(NC(=O)c1cc(Cl)cc(Cl)c1)C(=O)N1CCC2(CCCC2)CC1)C(=O)O (stereo partly drawn) [(S)-2-[5-(8-Aza-spiro[4.5]dec-8-yl)-4-(3,5-dichloro-benzoylamino)-5-oxo-pentanoylamino]-N-benzyl-N-methyl-succinamic acid]
215	19	O=C(O)C[C@H](NC(=O)CCC(NC(=O)c1cc(Cl)cc(Cl)c1)C(=O)N1CCC2(CCCC2)CC1)C(=O)Nc1cccc2ccccc12 (stereo partly drawn) [(S)-3-[5-(8-Aza-spiro[4.5]dec-8-yl)-4-(3,5-dichloro-benzoylamino)-5-oxo-pentanoylamino]-N-naphthalen-1-yl-succinamic acid]
46	9	O=C(O)CC[C@H](NC(=O)CCC(NC(=O)c1cc(Cl)cc(Cl)c1)C(=O)N1CCC2(CCCC2)CC1)C(=O)NC1CCCc2ccccc21 (stereo partly drawn) [(S)-4-[5-(8-Aza-spiro[4.5]dec-8-yl)-4-(3,5-dichloro-benzoylamino)-5-oxo-pentanoylamino]-4-(1,2,3,4-tetrahydro-naphthalen-1-ylcarbamoyl)-butyric acid]
57	16	O=C(O)CC[C@H](NC(=O)CCC(NC(=O)c1cc(Cl)cc(Cl)c1)C(=O)N1CCC2(CCCC2)CC1)C(=O)Nc1cccc2c1CCCC2 (stereo partly drawn) [(S)-4-[5-(8-Aza-spiro[4.5]dec-8-yl)-4-(3,5-dichloro-benzoylamino)-5-oxo-pentanoylamino]-4-(5,6,7,8-tetrahydro-naphthalen-1-ylcarbamoyl)-butyric acid]
